The source of these data is patent US9340590B2 (priority 2011, dated 2016).

Like-named read-outs stand apart in the source and are kept apart here. Positions of bridges follow the written chain, without caps; N, C: chain ends. Non-standard residues stand in square brackets, D forms with d. Residues, ends and D or L forms follow the SMILES beside them. Phe(4-CF3) = N[C@@H](Cc1ccc(C(F)(F)F)cc1)C(=O)O; Arg(Me2s) = CN=C(NC)NCCC[C@H](N)C(=O)O; Phe(2-Cl) = N[C@@H](Cc1ccccc1Cl)C(=O)O; 2Pal = N[C@@H](Cc1ccccn1)C(=O)O

What all share (assay): cell-based
One test has as its target hNav1.7 (Homo sapiens, UniProt Q15858). It counts as cell-based. Particulars: IonWorks Quattro, read-out: IWQ Use Nav1.7.
A further test concerns the target hNav1.3 (Homo sapiens, UniProt Q9NY46). The note with it: IonWorks Quattro, read-out: IWQ Use Nav1.3.
A further test deals with hNav1.5 (Homo sapiens, UniProt Q14524).
Setting [1] is: use-dependent protocol, hNav1.7.
The mark [2] stands for this setting: use-dependent protocol, hNav1.3.
Where [3] appears, read: IonWorks Quattro, use-dependent protocol, hNav1.5, read-out: IWQ Use Nav1.5.
The mark [4] stands for this setting: IonWorks Quattro, Use, read-out: IWQ Use Nav1.5.

hNav1.7, sequence (Q15858 whole entry, looked up): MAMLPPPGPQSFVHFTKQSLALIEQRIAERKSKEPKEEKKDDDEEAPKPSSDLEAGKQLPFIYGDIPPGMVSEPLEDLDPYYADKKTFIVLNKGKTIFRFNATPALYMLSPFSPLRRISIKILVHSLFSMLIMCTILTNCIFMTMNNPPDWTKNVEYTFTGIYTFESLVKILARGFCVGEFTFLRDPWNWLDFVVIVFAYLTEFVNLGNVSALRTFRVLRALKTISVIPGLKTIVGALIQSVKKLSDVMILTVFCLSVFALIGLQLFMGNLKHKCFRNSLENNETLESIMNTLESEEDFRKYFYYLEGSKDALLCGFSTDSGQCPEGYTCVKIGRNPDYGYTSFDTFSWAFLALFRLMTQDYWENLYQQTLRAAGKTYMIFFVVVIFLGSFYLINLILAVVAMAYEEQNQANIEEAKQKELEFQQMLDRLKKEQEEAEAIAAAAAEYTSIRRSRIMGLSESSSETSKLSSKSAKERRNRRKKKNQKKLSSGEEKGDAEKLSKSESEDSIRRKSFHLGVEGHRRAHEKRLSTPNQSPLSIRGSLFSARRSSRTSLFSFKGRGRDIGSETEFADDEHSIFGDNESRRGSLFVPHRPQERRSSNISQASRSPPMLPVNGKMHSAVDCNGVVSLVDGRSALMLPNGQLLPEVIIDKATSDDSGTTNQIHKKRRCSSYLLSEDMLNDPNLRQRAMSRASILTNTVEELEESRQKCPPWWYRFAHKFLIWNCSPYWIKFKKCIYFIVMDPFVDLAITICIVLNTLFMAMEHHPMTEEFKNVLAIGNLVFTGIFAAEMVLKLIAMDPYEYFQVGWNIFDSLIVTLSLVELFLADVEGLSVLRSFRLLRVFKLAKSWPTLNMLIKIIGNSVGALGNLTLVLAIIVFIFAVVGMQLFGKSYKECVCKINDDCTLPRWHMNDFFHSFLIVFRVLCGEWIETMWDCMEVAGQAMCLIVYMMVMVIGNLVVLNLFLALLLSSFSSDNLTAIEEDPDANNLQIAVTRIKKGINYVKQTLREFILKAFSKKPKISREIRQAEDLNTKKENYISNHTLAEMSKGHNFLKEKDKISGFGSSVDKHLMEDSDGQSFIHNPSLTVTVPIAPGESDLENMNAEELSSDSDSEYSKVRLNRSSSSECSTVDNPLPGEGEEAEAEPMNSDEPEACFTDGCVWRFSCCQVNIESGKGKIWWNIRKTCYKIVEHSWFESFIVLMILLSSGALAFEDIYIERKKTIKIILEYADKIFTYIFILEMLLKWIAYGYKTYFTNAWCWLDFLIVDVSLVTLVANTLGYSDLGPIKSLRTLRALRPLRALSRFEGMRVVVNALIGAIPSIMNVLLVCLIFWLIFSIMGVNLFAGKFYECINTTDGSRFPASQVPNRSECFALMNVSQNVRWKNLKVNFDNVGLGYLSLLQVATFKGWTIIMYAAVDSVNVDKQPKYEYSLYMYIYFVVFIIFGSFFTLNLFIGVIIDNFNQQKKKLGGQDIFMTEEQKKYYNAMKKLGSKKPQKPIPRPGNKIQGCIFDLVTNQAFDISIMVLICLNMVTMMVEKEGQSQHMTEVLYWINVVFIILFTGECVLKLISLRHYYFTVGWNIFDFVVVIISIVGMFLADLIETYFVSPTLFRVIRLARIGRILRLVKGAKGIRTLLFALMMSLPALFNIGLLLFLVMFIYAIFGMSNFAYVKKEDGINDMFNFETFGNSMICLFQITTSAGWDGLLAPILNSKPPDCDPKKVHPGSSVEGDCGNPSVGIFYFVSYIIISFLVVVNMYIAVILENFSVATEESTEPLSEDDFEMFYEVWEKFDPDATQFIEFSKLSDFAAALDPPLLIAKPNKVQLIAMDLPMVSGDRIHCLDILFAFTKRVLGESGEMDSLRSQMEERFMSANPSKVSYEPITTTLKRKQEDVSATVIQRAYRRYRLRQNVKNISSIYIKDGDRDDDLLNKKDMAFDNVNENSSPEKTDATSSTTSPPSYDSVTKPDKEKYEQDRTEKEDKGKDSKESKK
hNav1.5, sequence (Q14524 whole entry, looked up): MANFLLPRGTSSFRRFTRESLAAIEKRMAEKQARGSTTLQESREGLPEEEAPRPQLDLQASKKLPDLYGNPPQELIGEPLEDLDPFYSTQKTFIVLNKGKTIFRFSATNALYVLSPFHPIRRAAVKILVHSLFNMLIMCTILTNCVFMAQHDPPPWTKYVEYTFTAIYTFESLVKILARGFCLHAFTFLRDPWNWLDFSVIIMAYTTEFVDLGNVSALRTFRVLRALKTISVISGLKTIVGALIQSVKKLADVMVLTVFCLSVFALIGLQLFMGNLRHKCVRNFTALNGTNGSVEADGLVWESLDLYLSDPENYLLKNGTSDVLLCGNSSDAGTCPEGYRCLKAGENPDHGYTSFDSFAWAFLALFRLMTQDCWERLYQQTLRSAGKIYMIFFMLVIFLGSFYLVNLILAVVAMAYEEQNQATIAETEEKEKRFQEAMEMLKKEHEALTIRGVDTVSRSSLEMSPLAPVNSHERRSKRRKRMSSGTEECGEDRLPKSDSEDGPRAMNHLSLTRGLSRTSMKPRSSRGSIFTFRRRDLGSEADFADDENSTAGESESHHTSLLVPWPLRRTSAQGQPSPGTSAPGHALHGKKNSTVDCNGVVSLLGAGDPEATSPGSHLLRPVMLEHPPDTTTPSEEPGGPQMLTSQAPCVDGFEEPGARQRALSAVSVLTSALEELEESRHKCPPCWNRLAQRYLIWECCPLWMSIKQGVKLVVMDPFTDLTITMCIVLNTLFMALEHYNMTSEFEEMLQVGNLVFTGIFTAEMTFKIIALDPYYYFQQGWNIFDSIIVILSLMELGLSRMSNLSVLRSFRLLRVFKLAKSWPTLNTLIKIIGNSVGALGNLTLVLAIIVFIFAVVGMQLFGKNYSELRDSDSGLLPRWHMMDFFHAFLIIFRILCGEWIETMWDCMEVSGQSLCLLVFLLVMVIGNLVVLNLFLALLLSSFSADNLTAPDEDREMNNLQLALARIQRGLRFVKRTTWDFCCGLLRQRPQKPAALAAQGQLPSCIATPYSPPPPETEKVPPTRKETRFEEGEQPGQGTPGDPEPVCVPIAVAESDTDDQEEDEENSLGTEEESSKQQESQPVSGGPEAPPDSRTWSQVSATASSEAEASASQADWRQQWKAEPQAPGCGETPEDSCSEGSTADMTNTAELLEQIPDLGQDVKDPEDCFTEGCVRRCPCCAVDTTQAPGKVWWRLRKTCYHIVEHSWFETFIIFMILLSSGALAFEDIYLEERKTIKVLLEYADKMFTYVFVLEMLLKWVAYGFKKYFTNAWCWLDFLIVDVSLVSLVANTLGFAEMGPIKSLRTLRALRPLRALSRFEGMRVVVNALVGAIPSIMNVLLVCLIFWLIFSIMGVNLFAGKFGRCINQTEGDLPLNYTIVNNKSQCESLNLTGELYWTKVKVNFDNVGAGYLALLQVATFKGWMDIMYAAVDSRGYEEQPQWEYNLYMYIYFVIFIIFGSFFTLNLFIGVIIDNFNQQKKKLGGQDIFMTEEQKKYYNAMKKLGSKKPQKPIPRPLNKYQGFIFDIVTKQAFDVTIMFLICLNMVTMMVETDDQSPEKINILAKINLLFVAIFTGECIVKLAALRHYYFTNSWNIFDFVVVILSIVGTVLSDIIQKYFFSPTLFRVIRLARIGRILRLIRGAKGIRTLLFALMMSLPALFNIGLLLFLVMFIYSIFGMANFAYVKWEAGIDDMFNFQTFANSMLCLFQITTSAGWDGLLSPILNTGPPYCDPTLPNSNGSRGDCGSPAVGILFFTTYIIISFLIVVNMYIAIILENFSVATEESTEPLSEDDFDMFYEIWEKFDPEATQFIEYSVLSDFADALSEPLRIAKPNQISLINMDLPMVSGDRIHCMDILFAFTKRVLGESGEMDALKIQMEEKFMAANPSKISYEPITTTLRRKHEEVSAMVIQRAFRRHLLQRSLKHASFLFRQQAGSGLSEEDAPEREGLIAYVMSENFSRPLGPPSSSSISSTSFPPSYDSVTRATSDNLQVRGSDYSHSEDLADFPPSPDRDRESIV

Regarding `CC[C@H](C)[C@@H]1NC(=O)[C@@H]2CSSC[C@@H]3NC(=O)[C@H](C(C)C)NC(=O)[C@H](CC(C)C)NC(=O)[C@H](CC(N)=O)NC(=O)[C@@H]4CCCN4C(=O)[C@H](CCCNC(=N)N)NC(=O)[C@H](CSSC[C@H](NC(=O)[C@@H](N)CC(=O)O)C(=O)N[C@@H](CC(C)C)C(=O)NCC(=O)N[C@@H](Cc4ccccc4)C(=O)N[C@@H](CCSC)C(=O)N[C@@H](CCCNC(=N)N)C(=O)N[C@@H](CCCCN)C(=O)N2)NC(=O)[C@H](CSSC[C@@H](C(=O)N[C@@H](CCCCN)C(=O)N[C@@H](Cc2ccc(O)cc2)C(=O)N[C@H](C(=O)N[C@@H](CCC(=O)O)C(N)=O)C(C)C)NC(=O)[C@H](Cc2c[nH]c4ccccc24)NC(=O)[C@H](CCCCN)NC(=O)[C@H](Cc2cnc[nH]2)NC(=O)[C@H]([C@@H](C)O)NC(=O)[C@H](CCCNC(=N)N)NC(=O)[C@H](CO)NC3=O)NC(=O)[C@H](CCCCN)NC(=O)[C@H](CC(=O)O)NC(=O)[C@H](CC(N)=O)NC(=O)[C@H](CC(=O)O)NC(=O)[C@@H]2CCCN2C1=O` [compound 34] (H-DCLGFMRKCIPDNDKCCRPNLVCSRTHKWCKYVE-NH2; disulfide 2-17, 9-23, 16-30), the IC50 was found to be 17000 nM at hNav1.7 (use-dependent, […]); 11200 nM at hNav1.3 (use-dependent, […]); 16.8 µM at hNav1.5 (IWQ Use Nav1.5 (μM)).

Regarding `CC[C@H](C)[C@@H]1NC(=O)[C@@H]2CSSC[C@@H]3NC(=O)[C@H](C(C)C)NC(=O)[C@H](CC(C)C)NC(=O)[C@H](CC(N)=O)NC(=O)[C@@H]4CCCN4C(=O)[C@H](CCCNC(=N)N)NC(=O)[C@H](CSSC[C@H](NC(=O)[C@@H](N)CC(=O)O)C(=O)N[C@@H](CC(C)C)C(=O)NCC(=O)N[C@@H](Cc4ccc(C(F)(F)F)cc4)C(=O)N[C@@H](Cc4ccccc4)C(=O)N[C@@H](CCCNC(=N)N)C(=O)N[C@@H](CCCCN)C(=O)N2)NC(=O)[C@H](CSSC[C@@H](C(=O)N[C@@H](CCCCN)C(=O)N[C@@H](Cc2ccc(O)cc2)C(=O)N[C@H](C(=O)N[C@@H](Cc2ccccc2)C(N)=O)C(C)C)NC(=O)[C@H](Cc2c[nH]c4ccccc24)NC(=O)[C@H](CCCCN)NC(=O)[C@H](Cc2c[nH]cn2)NC(=O)[C@H]([C@@H](C)O)NC(=O)[C@H](CCCNC(=N)N)NC(=O)[C@H](CO)NC3=O)NC(=O)[C@H](CCCCN)NC(=O)[C@H](CC(=O)O)NC(=O)[C@H](CC(N)=O)NC(=O)[C@H](CC(=O)O)NC(=O)[C@@H]2CCCN2C1=O` [compound 623] (H-DCLG[Phe(4-CF3)]FRKCIPDNDKCCRPNLVCSRTHKWCKYVF-NH2; disulfide 2-17, 9-23, 16-30), the IC50 at hNav1.7 (setting [1]) amounted to 96 nM; on hNav1.3 (setting [2]), 13 nM; at hNav1.5 (setting [3]) it was 7.1 µM.

Turning to `CC[C@H](C)[C@@H]1NC(=O)[C@@H]2CSSC[C@@H]3NC(=O)[C@H](C(C)C)NC(=O)[C@H](CC(C)C)NC(=O)[C@H](CC(N)=O)NC(=O)[C@@H]4CCCN4C(=O)[C@H](CCCNC(=N)N)NC(=O)[C@H](CSSC[C@H](NC(=O)[C@@H](N)CC(=O)O)C(=O)N[C@@H](CC(C)C)C(=O)NCC(=O)N[C@@H](Cc4ccccc4Cl)C(=O)N[C@@H](Cc4ccccc4)C(=O)N[C@@H](CCCNC(=N)N)C(=O)N[C@@H](CCCCN)C(=O)N2)NC(=O)[C@H](CSSC[C@@H](C(=O)N[C@@H](CCCCN)C(=O)N[C@@H](Cc2ccc(O)cc2)C(=O)N[C@H](C(=O)N[C@@H](Cc2ccccc2)C(N)=O)C(C)C)NC(=O)[C@H](Cc2c[nH]c4ccccc24)NC(=O)[C@H](CCCCN)NC(=O)[C@H](Cc2c[nH]cn2)NC(=O)[C@H]([C@@H](C)O)NC(=O)[C@H](CCCNC(=N)N)NC(=O)[C@H](CO)NC3=O)NC(=O)[C@H](CCCCN)NC(=O)[C@H](CC(=O)O)NC(=O)[C@H](CC(N)=O)NC(=O)[C@H](CC(=O)O)NC(=O)[C@@H]2CCCN2C1=O` [compound 630] (H-DCLG[Phe(2-Cl)]FRKCIPDNDKCCRPNLVCSRTHKWCKYVF-NH2; disulfide 2-17, 9-23, 16-30), the values for the IC50 at hNav1.7 (setting [1]), at hNav1.3 (setting [2]) and at hNav1.5 (setting [3]) were 60 nM, 9 nM and 5.8 µM, respectively.

As for `CC[C@H](C)[C@@H]1NC(=O)[C@@H]2CSSC[C@@H]3NC(=O)[C@H](Cc4ccccn4)NC(=O)[C@H](CC(C)C)NC(=O)[C@H](CC(N)=O)NC(=O)[C@@H]4CCCN4C(=O)[C@H](CCCNC(=N)N)NC(=O)[C@H](CSSC[C@H](NC(=O)[C@@H](N)CC(=O)O)C(=O)N[C@@H](CC(C)C)C(=O)NCC(=O)N[C@@H](Cc4ccccc4)C(=O)N[C@@H](CCSC)C(=O)N[C@@H](CCCNC(=N)N)C(=O)N[C@@H](CCCCN)C(=O)N2)NC(=O)[C@H](CSSC[C@@H](C(=O)N[C@@H](CCCCN)C(=O)N[C@@H](Cc2ccc(O)cc2)C(=O)N[C@H](C(=O)N[C@@H](Cc2ccccc2)C(N)=O)C(C)C)NC(=O)[C@H](Cc2c[nH]c4ccccc24)NC(=O)[C@H](CCCCN)NC(=O)[C@H](Cc2c[nH]cn2)NC(=O)[C@H]([C@@H](C)O)NC(=O)[C@H](CCCNC(=N)N)NC(=O)[C@H](CO)NC3=O)NC(=O)[C@H](CCCCN)NC(=O)[C@H](CC(=O)O)NC(=O)[C@H](CC(N)=O)NC(=O)[C@H](CC(=O)O)NC(=O)[C@@H]2CCCN2C1=O` [compound 334] (H-DCLGFMRKCIPDNDKCCRPNL[2Pal]CSRTHKWCKYVF-NH2; disulfide 2-17, 9-23, 16-30), the figures for the IC50 on hNav1.7 (Use), at hNav1.3 (Use) and at hNav1.5 (setting [4]) were 330 nM, 140 nM and 11 µM, respectively.

As to `CC[C@H](C)[C@@H]1NC(=O)[C@@H]2CSSC[C@@H]3NC(=O)[C@H](C(C)C)NC(=O)[C@H](CC(C)C)NC(=O)[C@H](CC(N)=O)NC(=O)[C@@H]4CCCN4C(=O)[C@H](CCCNC(=N)N)NC(=O)[C@H](CSSC[C@H](NC(=O)[C@@H](N)CC(=O)O)C(=O)N[C@@H](CC(C)C)C(=O)NCC(=O)N[C@@H](C)C(=O)N[C@@H](CCSC)C(=O)N[C@@H](CCCNC(=N)N)C(=O)N[C@@H](CCCCN)C(=O)N2)NC(=O)[C@H](CSSC[C@@H](C(=O)N[C@@H](CCCCN)C(=O)N[C@@H](Cc2ccc(O)cc2)C(=O)N[C@H](C(=O)N[C@@H](Cc2ccccc2)C(N)=O)C(C)C)NC(=O)[C@H](Cc2c[nH]c4ccccc24)NC(=O)[C@H](CCCNC(=N)N)NC(=O)[C@H](Cc2c[nH]cn2)NC(=O)[C@H]([C@@H](C)O)NC(=O)[C@H](CCCNC(=N)N)NC(=O)[C@H](CO)NC3=O)NC(=O)[C@H](CCCCN)NC(=O)[C@H](CC(=O)O)NC(=O)[C@H](CC(N)=O)NC(=O)[C@H](CC(=O)O)NC(=O)[C@@H]2CCCN2C1=O` [compound 260] (H-DCLGAMRKCIPDNDKCCRPNLVCSRTHRWCKYVF-NH2; disulfide 2-17, 9-23, 16-30), the IC50 was found to be 330 nM at hNav1.7 (use-dependent block, hNav1.7); 240 nM on hNav1.3 (use-dependent block, hNav1.3); 5 µM at hNav1.5 (IonWorks Quattro, use-dependent block, hNav1.5, read-out: IWQ Use Nav1.5).

Regarding `CC[C@H](C)[C@@H]1NC(=O)[C@@H]2CSSC[C@@H]3NC(=O)[C@H](C(C)C)NC(=O)[C@H](CC(C)C)NC(=O)[C@H](CC(N)=O)NC(=O)[C@@H]4CCCN4C(=O)[C@H](CCCNC(=N)N)NC(=O)[C@H](CSSC[C@H](NC(=O)[C@@H](N)CC(=O)O)C(=O)N[C@@H](CC(C)C)C(=O)NCC(=O)N[C@@H](Cc4ccccc4)C(=O)N[C@@H](CCSC)C(=O)N[C@@H](CCCNC(=N)N)C(=O)N[C@@H](CCCCN)C(=O)N2)NC(=O)[C@H](CSSC[C@@H](C(=O)N[C@@H](CCCCN)C(=O)N[C@@H](Cc2ccc(O)cc2)C(=O)N[C@H](C(=O)N[C@@H](Cc2ccccc2)C(N)=O)C(C)C)NC(=O)[C@H](Cc2c[nH]c4ccccc24)NC(=O)[C@H](CCCCN)NC(=O)[C@H](Cc2c[nH]cn2)NC(=O)[C@H]([C@@H](C)O)NC(=O)[C@H](CCCNC(=N)N)NC(=O)[C@H](CO)NC3=O)NC(=O)[C@H](CCCNC(=NC)NC)NC(=O)[C@H](CC(=O)O)NC(=O)[C@H](CC(N)=O)NC(=O)[C@H](CC(=O)O)NC(=O)[C@@H]2CCCN2C1=O` [compound 312] (H-DCLGFMRKCIPDND[Arg(Me2s)]CCRPNLVCSRTHKWCKYVF-NH2; disulfide 2-17, 9-23, 16-30), the results for the IC50 on hNav1.7 (Use), at hNav1.3 (Use) and at hNav1.5 (setting [4]) were 140 nM, 150 nM and 9.67 µM, respectively.

Take `CC[C@H](C)[C@@H]1NC(=O)[C@@H]2CSSC[C@@H]3NC(=O)[C@H](C(C)C)NC(=O)[C@H](CC(C)C)NC(=O)[C@H](CC(N)=O)NC(=O)[C@@H]4CCCN4C(=O)[C@H](CCCNC(=N)N)NC(=O)[C@H](CSSC[C@H](NC(=O)[C@@H](N)CC(=O)O)C(=O)N[C@@H](CC(C)C)C(=O)NCC(=O)N[C@@H](Cc4ccccc4)C(=O)N[C@@H](CCSC)C(=O)N[C@@H](CCCNC(=N)N)C(=O)N[C@@H](CCCCN)C(=O)N2)NC(=O)[C@H](CSSC[C@@H](C(=O)N[C@@H](CCCCN)C(=O)N2CCC[C@H]2C(=O)N[C@H](C(=O)N[C@@H](Cc2ccccc2)C(N)=O)C(C)C)NC(=O)[C@H](Cc2c[nH]c4ccccc24)NC(=O)[C@H](CCCCN)NC(=O)[C@H](Cc2c[nH]cn2)NC(=O)[C@H]([C@@H](C)O)NC(=O)[C@H](CCCNC(=N)N)NC(=O)[C@H](CO)NC3=O)NC(=O)[C@H](CCCCN)NC(=O)[C@H](CC(=O)O)NC(=O)[C@H](CC(N)=O)NC(=O)[C@H](CC(=O)O)NC(=O)[C@@H]2CCCN2C1=O` [compound 383] (H-DCLGFMRKCIPDNDKCCRPNLVCSRTHKWCKPVF-NH2; disulfide 2-17, 9-23, 16-30): the IC50 on hNav1.7 (Table 25, use, […]) is > 5000 nM; at hNav1.3 (Table 25, use, […]), > 5000 nM; on hNav1.5 (Table 25, IonWorks Quattro, use, […], read-out: IWQ Use Nav1.5), > 5 µM.
